Laboratory results: US20030203944A1, “Novel thiocarbamic acid derivatives and the pharmaceutical compositions containing the same” (priority 2000, published 2003)

Tests used:
[1] = biological target: T1, cation channel connected to vanilloid receptor (Rattus norvegicus, UniProt O35433); experiment: Channel activity assay (patch clamp test); format: cell-based; set-up: key: NR: no response; +: antagonistic potency equal to capsazepine; ++: antagonistic potency 10 times higher than capsazepine; details: potency relative to capsazepine
T1 construct: endogenous in cells
Protocol: (2) Channel Activity Assay
Antagonistic activities of test compounds were assayed based on electrical change of cation channel connected to vanilloid receptor and experiments were conducted according to reference method (Oh et al., 1996, J. Neuroscience 16, pp1659-1667) (Table 1).

[2] = tested on: Male ICR mice; experiment: Analgesic activity test: mouse writhing test by inducing with phenyl-p-quinone; format: in vivo; details: writhes vs control
Protocol: (3) Analgesic Activity Test: Mouse Writhing Test by Inducing with Phenyl-p-quinone
Male ICR mice (mean body weight 25 g) were maintained in a controlled lighting environment (12 h on/12 h off) for experiment. Animals received an intraperitoneal injection of 0.3 ml of the chemical irritant phenyl-p-quinone (dissolved in saline containing 5% ethanol to be a dose of 4.5 mg/kg) and 6 min later, the number of abdominal constrictions was counted in the subsequent 6 min period. Animals (10 animals/group) received 0.2 ml of test compounds solution in vehicle of ethanol/Tween 80/saline (10/10/80) intraperitoneally 30 min before the injection of phenyl-p-quinone. A reduction in the number of writhes responding to the test drug compound relative to the number responding in saline control group was considered to be indicative of an analgesic effect. Analgesic effect was calculated by % inhibition equation (% inhibition=(C−T)/C×100), wherein C and T represent the number of writhes in control and compound-treated group, respectively (Table 2).

[3] = tested on: Male ICR mice; experiment: Antiinflammatory activity test: TPA-induced mouse ear edema test; format: in vivo; details: dose 1 mg/ear topical; ear weight increase 24 h after TPA
Protocol: (4) Antiinflammatory Activity Test: TPA (12-O-tetradecanoylphorbol 13-acetate)-induced Mouse Ear Edema Test
Male ICR mice (body weight 25-30 g), 10 animals/group, were treated topically on the right ear with 30 μl of TPA (2.5 μg) solution in acetone and after 15 min, […] of acetone or test compound solution in acetone was applied topically. After six hours, an identical treatment was applied again. After twenty four hours following the treatment of TPA, the animals were sacrificed and ear tissue was dissected using 6 mm-diameter punch. Ear tissue dissected were weighed to the nearest 0.1 mg on an electrobalance. The increased weight of the tissue compared to control group was considered as an index of inflammation. The percent inhibition is defined by the following equation:
% inhibition=(C−T)/C×100, wherein C and T represent an increase of ear weight in TPA-treated and ThA+drug-treated group, respectively.

[4] = dose 10 mg/kg intraperitoneally 30 min before phenyl-p-quinone

T1 sequence (O35433 whole entry): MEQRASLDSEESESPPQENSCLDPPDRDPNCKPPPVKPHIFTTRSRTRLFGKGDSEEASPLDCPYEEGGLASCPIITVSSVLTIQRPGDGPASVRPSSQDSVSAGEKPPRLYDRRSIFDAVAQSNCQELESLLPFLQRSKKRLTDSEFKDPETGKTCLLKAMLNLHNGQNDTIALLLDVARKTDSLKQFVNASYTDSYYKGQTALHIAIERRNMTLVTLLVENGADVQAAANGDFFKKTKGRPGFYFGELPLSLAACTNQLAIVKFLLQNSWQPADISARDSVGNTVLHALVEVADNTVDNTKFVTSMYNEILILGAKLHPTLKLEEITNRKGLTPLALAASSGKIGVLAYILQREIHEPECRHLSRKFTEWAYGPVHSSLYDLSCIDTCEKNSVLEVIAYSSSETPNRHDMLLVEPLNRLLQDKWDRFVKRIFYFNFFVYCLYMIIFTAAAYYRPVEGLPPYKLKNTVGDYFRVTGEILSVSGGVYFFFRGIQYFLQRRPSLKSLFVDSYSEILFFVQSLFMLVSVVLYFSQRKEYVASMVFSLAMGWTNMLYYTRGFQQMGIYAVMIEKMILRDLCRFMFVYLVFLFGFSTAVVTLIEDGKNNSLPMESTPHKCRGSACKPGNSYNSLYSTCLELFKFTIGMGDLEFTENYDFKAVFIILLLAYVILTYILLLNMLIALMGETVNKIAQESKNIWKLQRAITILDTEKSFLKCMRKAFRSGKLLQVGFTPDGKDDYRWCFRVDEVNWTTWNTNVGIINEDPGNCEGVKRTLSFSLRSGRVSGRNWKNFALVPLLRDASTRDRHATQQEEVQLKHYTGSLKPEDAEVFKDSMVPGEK

Row | SMILES | Patch clamp Test (antagonistic activities) [1] | Analgesic effect (% Inhibition) [2, 4] [%] | Anti-inflammatory effect (% Inhibition) [3] [%] | Analgesic effect (% Inhibition) ([2]; dose 1 mg/kg intraperitoneally 30 min before phenyl-p-quinone) [%]
1 | COc1cc(CCC(CCc2ccccc2)OC(=S)NCCc2ccccc2)ccc1O (stereo not shown) [Example 5, Phenethyl Thiocarbamic Acid O-[3-(4-hydroxy-3-methoxyphenyl)-1-phenethylpropyl] Ester] | + | 44 | 33 | 
2 | COc1cc(CCC(CCc2ccc(C(F)(F)F)cc2)OC(=S)NCCc2ccccc2)ccc1O (stereo not shown) [Example 54] | + | 64 | 40 | 
3 | COc1cc(CCC(C)(C)OC(=S)NCCc2ccccc2)ccc1O [Example 56] | + |  |  | 
4 | COc1cc(OCC2CO2)ccc1O[Si](C)(C)C(C)(C)C (stereo not shown) [Example 60, t-butyl-(2-methoxy-4-oxiranylmethoxy-phenoxy)-dimethyl-silane] |  |  | 45 | 45
5 | CCC(COc1ccc(NS(C)(=O)=O)c(C(F)(F)F)c1)OC(=S)NCCc1ccccc1 (stereo not shown) [Example 83] | + |  |  | 
